For 32 molecules, IC50 results are on record in patent publication US20070078263A1, “BIARYL SUBSTITUTED HETEROCYCLE INHIBITORS OF LTA4H FOR TREATING INFLAMMATION” (deCODE Chemistry, Inc., priority 2005, published 2007).

Where a name gives a salt, the structure may show the parent alone. Some results are limits rather than exact numbers.

The first assay has as its target T1, human LTA4 hydrolase (Homo sapiens, UniProt P09960).
T1 construct: A human LTA4 hydrolase full-length cDNA clone (NM 000895) was purchased; His tag (6xHis of vector pDEST17); made in house; host or cells: Escherichia coli BL21-AI
T1 sequence (P09960 1-611): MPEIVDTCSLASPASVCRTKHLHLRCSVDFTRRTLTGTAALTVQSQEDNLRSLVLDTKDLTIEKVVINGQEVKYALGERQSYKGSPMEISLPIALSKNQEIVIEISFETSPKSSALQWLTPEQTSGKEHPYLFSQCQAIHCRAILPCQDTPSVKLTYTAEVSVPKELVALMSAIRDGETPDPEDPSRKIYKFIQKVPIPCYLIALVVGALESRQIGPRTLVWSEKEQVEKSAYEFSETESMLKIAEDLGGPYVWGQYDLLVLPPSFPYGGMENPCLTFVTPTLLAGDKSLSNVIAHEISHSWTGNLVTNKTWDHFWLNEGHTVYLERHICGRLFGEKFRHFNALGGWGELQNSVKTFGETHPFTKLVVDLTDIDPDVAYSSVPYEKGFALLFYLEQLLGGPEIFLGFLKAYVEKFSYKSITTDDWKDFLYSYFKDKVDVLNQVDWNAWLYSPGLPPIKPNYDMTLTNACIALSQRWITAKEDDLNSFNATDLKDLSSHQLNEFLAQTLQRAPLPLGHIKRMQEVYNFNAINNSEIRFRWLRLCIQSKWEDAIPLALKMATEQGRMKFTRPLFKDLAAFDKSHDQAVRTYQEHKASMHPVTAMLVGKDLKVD
Description: In vitro assay testing inhibitory activity against purified recombinant human LTA4 hydrolase (LTB4 formed, LC-MS/MS).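 Further: 200 nM enzyme preincubated 10 min at room temperature with serial inhibitor dilutions in pH 8.0 Tris buffer with BSA and 10% DMSO, then 2 µM LTA4 added.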 It is filed as biochemical.
Settings: not given
Regarding `c1ccc(CNc2ccc(OC[C@H]3CCCN3)cc2)cc1` [Example 48, Benzyl-[4-((R)-1-pyrrolidin-2-ylmethoxy)-phenyl]-amine], the IC50 was under 5 µM.

On to `c1ccc(Cc2ccc(COC[C@H]3CCCN3)cc2)cc1` [Example 156, hydrochloride salt], for which the IC50 was under 5 µM.

The assay is the same for the next values; noted with them: recombinant human LTA4 hydrolase 200 nM, LTA4 2 μM; read-out: AvgIC50.
`c1ccc(Cc2ccc(OC[C@@H]3CCCN3)nc2)cc1` [Example 142, 5-Benzyl-2-((S)-1-pyrrolidin-2-ylmethoxy)-pyridine hydrochloride salt]: the IC50 is under 5 µM.

Take `COC(=O)CCN1CCC[C@@H]1COc1ccc(Cc2ccccc2)cc1` [Example 7, 3-[(R)-2-(4-benzyl-phenoxymethyl)-pyrrolidin-1-yl]-propionic acid methyl ester]: the IC50 was under 5 µM.

As to `O=C(Cc1ccccc1)c1ccc(OC[C@H]2CCCN2)cc1` [Example 47, 2-Phenyl-1-[4-((R)-1-pyrrolidin-2-ylmethoxy)-phenyl]-ethanone], the IC50 is 5 to 20 µM.

For the molecule `c1csc(-c2ccc(Cc3ccc(OC[C@H]4CCCN4)cc3)cc2)n1` [Example 149, 2-{4-[4-((R)-1-Pyrrolidin-2-ylmethoxy)-benzyl]-phenyl}-thiazole hydrochloride salt], the IC50 is under 5 µM.

As to `O[C@H]1CN[C@H](COc2ccc(Oc3ccccc3)cc2)C1` [Example 86, (3R,5S)-5-(4-Phenoxy-phenoxymethyl)-pyrrolidin-3-ol], the IC50 is under 5 µM.

As for `O=C(O)CCN1CCC[C@@H]1COc1ccc(Oc2ccncc2)cc1` [Example 145, 3-{(R)-2-[4-(Pyridin-4-yloxy)-phenoxymethyl]-pyrrolidin-1-yl}-propionic acid], the IC50 was under 5 µM.

Turning to `c1ccc(-c2ccc(Oc3ccc(OC[C@H]4CCCN4)cc3)cc2)cc1` [Example 12, (R)-2-[4-(Biphenyl-4-yloxy)-phenoxymethyl]-pyrrolidine hydrochloride], the IC50 is under 5 µM.

With `O=C(c1ccccc1)c1ccc(OC[C@H]2CCCN2)cc1` [Example 46, Phenyl-[4-((R)-1-pyrrolidin-2-ylmethoxy)-phenyl]-methanone], the IC50 fell in the range of 5 to 20 µM.

For `C[C@@H](NC(=O)CCCN1CCC[C@H]1COc1ccc(Oc2ccc(Cl)cc2)cc1)c1ccccc1` [Example 139, 4-{(S)-2-[4-(4-Chloro-phenoxy)-phenoxymethyl]-pyrrolidin-1-yl}-N—[(R)-1-phenylethyl]-butyramide], the IC50 is under 5 µM.

For the molecule `c1cc(Oc2ccc(OC[C@H]3CCCN3)cc2)ccn1` [Example 144, 4-[4-((R)-1-Pyrrolidin-2-ylmethoxy)-phenoxy]-pyridine], the IC50 is under 5 µM.

Regarding `O=C1CC[C@H](COc2ccc(Cc3ccccc3)cc2)N1` [Example 84, (R) 5-(4-Benzyl-phenoxymethyl)-pyrrolidin-2-one], the IC50 is under 5 µM.

On to `O=C(O)CCN1CCCC[C@H]1COc1ccc(Oc2ccc(Cl)cc2)cc1` [Example 59, 3-{(S)-2-[4-(4-Chloro-phenoxy)-phenoxymethyl]-piperidin-1-yl}-propionic acid hydrochloride], for which the IC50 was under 5 µM.

For the molecule `Ic1ccc(Cc2ccc(OC[C@@H]3CCCN3)cc2)cc1` [Example 121, (S)-2-[4-(4-Iodo-benzyl)-phenoxymethyl]-pyrrolidine], the IC50 was under 5 µM.

Regarding `Clc1ccc(Cc2ccc(OCC3CCCCN3)cc2)cc1` (stereo in doubt) [Example 166, (R)-2-[4-(4-Chlorobenzyl)-phenoxymethyl]-piperidine hydrochloride], the IC50 was under 5 µM.

Turning to `c1ccc(Cc2ccc(-c3ccc(OC[C@@H]4CCCN4)cc3)s2)cc1` [Example 172, (S)-2-[4-(5-Benzyl-thiophen-2-yl)-phenoxymethyl]-pyrrolidine], the IC50 was under 5 µM.

On to `c1ccc(Oc2ccc(SC[C@H]3CCCN3)cc2)cc1` [Example 43, (R)-2-(4-Phenoxy-phenylsulfanylmethyl)-pyrrolidine], for which the IC50 is under 5 µM.

For `O=C(O)CCCN1CCC[C@@H]1COc1ccc(Cc2ccc(Cl)cc2)cc1` [Example 65, 4-{(R)-2-[4-(4-Chloro-benzyl)-phenoxymethyl]-pyrrolidin-1-yl}-butyric acid], the IC50 is under 5 µM.

`OC(c1ccc(OC[C@H]2CCCN2)cc1)c1ccc(-c2ccsc2)cc1` (stereo partly drawn) [Example 129, [4-((R)-1-Pyrrolidin-2-ylmethoxy)-phenyl]-(4-thiophen-3-yl-phenyl)-methanol]: the IC50 lay in the range of 5 to 20 µM.

Turning to `O=C(O)CCCN1CCC[C@@H]1COc1ccc(Cc2ccc(-c3ccccc3)s2)cc1` [Example 160, 4-{(R)-2-[4-(5-Phenyl-thiophen-2-ylmethyl)-phenoxymethyl]-pyrrolidin-1-yl}-butyric acid], the IC50 was under 5 µM.

In the case of `c1ccc2oc(Oc3ccc(OC[C@H]4CCCN4)cc3)nc2c1` [Example 99, (R)-2-[4-(Benzooxazol-2-yloxy)-phenoxymethyl]-pyrrolidine Hydrogen chloride salt], the IC50 is under 5 µM.

Turning to `c1csc(-c2ccc(Oc3ccc(OC[C@H]4CCCN4)cc3)cc2)c1` [Example 131, (R)-2-[4-(4-Thiophen-2-yl-phenoxy)-phenoxymethyl]-pyrrolidine-1-hydrogen chloride salt], the IC50 was 5 to 20 µM.

As to `O=C(O)CCCN1CCC[C@@H]1COc1ccc(Cc2ccc(-c3ccco3)cc2)cc1` [Example 114, 4-{(R)-2-[4-(4-furan-2-yl-benzyl)-phenoxymethyl]-pyrrolidin-1-yl}-butyric acid hydrogen chloride salt], the IC50 is under 5 µM.

For the molecule `c1ccc(-c2ccc(Cc3ccc(OC[C@@H]4CCCN4)cc3)s2)cc1` [Example 161, (S)-2-[4-(5-Phenyl-thiophen-2-ylmethyl)-phenoxymethyl]-pyrrolidine hydrochloride salt], the IC50 was under 5 µM.

As for `O=C(O)CCCN1CCC[C@@H]1COCc1ccc(Cc2ccccc2)cc1` [Example 157, 4-[(R)-2-(4-Benzyl-benzyloxymethyl)pyrrolidin-1-yl]butylic acid hydrochloride salt], the IC50 is under 5 µM.

Consider `Fc1ccc(COc2ccc(OC[C@H]3CCCN3)cc2)cc1F` [Example 93, (R)-2-[4-(3,4-Difluoro-benzyloxy)-phenoxymethyl]-pyrrolidine Hydrogen chloride salt], for which the IC50 is under 5 µM.

Consider `FC(F)(F)c1ccc(COc2ccc(OC[C@H]3CCCN3)cc2)cc1` [Example 95, (R)-2-[4-(4-Trifluoromethyl-benzyloxy)-phenoxymethyl]-pyrrolidine Hydrogen chloride salt], for which the IC50 was under 5 µM.

For `c1csc(-c2ccc(Cc3ccc(OC[C@@H]4CCCN4)cc3)cc2)n1` [Example 150, 2-{4-[4-((S)-1-Pyrrolidin-2-ylmethoxy)-benzyl]-phenyl}-thiazole hydrochloride salt], the IC50 is under 5 µM.

Turning to `Cc1ccc(Oc2ccc(OC[C@H]3CCCN3)cc2)cc1` [Example 14, (R)-2-(4-p-Tolyloxy-phenoxymethyl)-pyrrolidine hydrochloride], the IC50 is under 5 µM.

For `Cc1ccc(-c2ccc(Cc3ccc(OC[C@H]4CCCN4CCCC(=O)O)cc3)cc2)s1` [Example 115, (R)-2-{4-[4-(5-methyl-thiophen-2-yl)-benzyl]-phenoxymethyl}-pyrrolidin-1-yl}-butyric acid hydrogen chloride salt], the IC50 is under 5 µM.

Consider `c1ncc(-c2ccc(Oc3ccc(OC[C@@H]4CCCN4)cc3)cc2)o1` [Example 89, 5-{4-[4-((S)-1-Pyrrolidin-2-ylmethoxy)-phenoxy]-phenyl}-oxazole], for which the IC50 was under 5 µM.
